This is an account of results in ChEMBL document CHEMBL1153141, “Anti-tumor activity of a new series of benzoxazepine derivatives in breast cancer” (Bioorg Med Chem Lett, 2010).

One data set concerns HEK293. The data set is described as follows: Cytotoxicity against HEK293 cells after 18 hrs by MTT assay. The note with it: human, hek293, 18 h. The data set is classed as cell-based.
For data set [1], the system named is MCF7. The data set is described as follows: Cytotoxicity against human MCF7 cells after 18 hrs by MTT assay. The data set is classed as functional, cell-based. The note with it: MCF7, 18 h. For orientation: Tetrazolium dyes change colour on reduction, which living cells bring about.
In the next data set the test system is Ishikawa. The data set is described as follows: Cytotoxicity against human Ishikawa cells after 18 hrs by MTT assay. The format is functional, cell-based.
A further data set relates to MDA-MB-231. The data set is described as follows: Cytotoxicity against human MDA-MB-231 cells after 18 hrs by MTT assay. The format is functional, cell-based. The note with it: MDA-MB-231, 18 h.
For a further data set, the system named is DU-145. Put plainly: Cytotoxicity against human DU145 cells after 18 hrs by MTT assay. The format is functional, cell-based. The note with it: DU-145, 18 h.
For data set [2], the system named is MCF7. The data set is described as follows: Induction of apoptosis in human MCF7 cells at 5 to 10 uM after 24 hrs using annexin V-propidium iodide staining by flow cytometry relative to control. The format is functional, cell-based. A general note: Flow cytometry measures light scatter and fluorescence of single cells or particles in a stream.
Data set [3] relates to MCF7. Put plainly: Antitumor activity against human MCF7 cells xenografted in mouse assessed as tumor volume regression at 8 to 16 mg/kg, po for 30 days. The format is functional, organism-based. (In general: A xenograft is tissue or cells of one species grown in another, often human tumour cells in immunodeficient mice.)
Data set [4] relates to MCF7. The data set is described as follows: Cell cycle arrest in human MCF7 cells assessed as accumulation at G0/G1 phase at 5 to 10 uM after 24 hrs using […] by flow cytometry relative to control. The data set is classed as functional, cell-based.

Where a name gives a salt, the structure may show the parent alone. Active and inactive are the calls of the source. The rule behind the calls is not given here. Some results are limits rather than exact numbers.

What is called IC50 is the point on the concentration scale where inhibition reaches its midpoint. On to `Cc1ccc(S(=O)(=O)N2Cc3ccccc3OC[C@@H]2Cc2ccc(OCCN3CCCC3)cc2)cc1`, for which, in the data set with HEK293, the Activity entry was “Non-toxic”. Besides, the IC50 with MCF7 [1] turned out to be 9.34 µM; in the data set with Ishikawa it was 23.8 µM; with MDA-MB-231, 13 µM; in the data set on DU-145, 30 µM.

Regarding `Cc1ccc(S(=O)(=O)N2Cc3ccccc3OC[C@@H]2C(C)C)cc1`, the IC50 in the data set with MCF7 [1], in the data set on Ishikawa, in the data set on MDA-MB-231 and in the data set with DU-145 was over 50 µM each time.

As for `CCN(CC)CCOc1ccc(C[C@H]2COc3ccccc3CN2S(=O)(=O)c2ccc(C)cc2)cc1`, the IC50 in the data set with MCF7 [1] was 6.53 µM; in the data set on Ishikawa, 22.6 µM; in the data set with MDA-MB-231 it was 17.4 µM; in the data set on DU-145 it was 23 µM. Besides, the result in the data set with MCF7 [2], with MCF7 [3] and with MCF7 [4] was Active.

Consider `Cc1ccc(S(=O)(=O)N2Cc3ccccc3OC[C@@H]2Cc2c[nH]c3ccccc23)cc1`, for which the IC50 with MCF7 [1], with Ishikawa, in the data set on MDA-MB-231 and in the data set with DU-145 was over 50 µM in each case.

With `Cc1ccc(S(=O)(=O)N2Cc3ccccc3OC[C@H]2Cc2ccccc2)cc1`, the IC50 in the data set on MCF7 [1], in the data set with Ishikawa, in the data set on MDA-MB-231 and with DU-145 was over 50 µM each time.

As to `COc1ccc2c(c1)OC[C@H](Cc1ccc(OCCN3CCCCC3)cc1)N(S(=O)(=O)c1ccc(C)cc1)C2`, the IC50 with MCF7 [1], with Ishikawa, with MDA-MB-231 and in the data set on DU-145 was over 50 µM in each case.

For `COc1cccc2c1OC[C@H](Cc1ccc(OCCN3CCOCC3)cc1)N(S(=O)(=O)c1ccc(C)cc1)C2`, the half-maximal inhibitory concentration (IC50) in the data set with MCF7 [1], with Ishikawa, in the data set on MDA-MB-231 and in the data set on DU-145 was over 50 µM in each case.

In the case of `Cc1ccc(S(=O)(=O)N2Cc3ccccc3OC[C@@H]2Cc2ccc(O)cc2)cc1`, the IC50 in the data set with MCF7 [1] is 29.1 µM; with Ishikawa, 34 µM; with MDA-MB-231, over 50 µM.

`CCC(C)[C@H]1COc2ccccc2CN1S(=O)(=O)c1ccc(C)cc1` (stereo partly specified): the IC50 in the data set with MCF7 [1], in the data set with Ishikawa, in the data set with MDA-MB-231 and in the data set with DU-145 was over 50 µM each time.

As to `Cc1ccc(S(=O)(=O)N2Cc3ccccc3OCC2Cc2ccc(OCCN3CCOCC3)cc2)cc1` (stereo unspecified), the IC50 in the data set with MCF7 [1], with Ishikawa, with MDA-MB-231 and with DU-145 was over 50 µM each time.

As for `COc1ccc2c(c1)OC[C@H](Cc1ccc(OCCN3CCOCC3)cc1)N(S(=O)(=O)c1ccc(C)cc1)C2`, the IC50 in the data set with MCF7 [1], in the data set on Ishikawa, in the data set on MDA-MB-231 and in the data set on DU-145 was over 50 µM in each case.

On to `COc1cccc2c1OC[C@H](Cc1ccc(OCCN3CCCC3)cc1)N(S(=O)(=O)c1ccc(C)cc1)C2`, for which the IC50 in the data set with MCF7 [1], in the data set on Ishikawa, in the data set on MDA-MB-231 and in the data set on DU-145 was over 50 µM each time.

As to `Cc1ccc(S(=O)(=O)N2Cc3ccccc3OC[C@@H]2Cc2ccccc2)cc1`, the IC50 in the data set with MCF7 [1], in the data set with Ishikawa, in the data set on MDA-MB-231 and with DU-145 was over 50 µM each time.

As for `Cc1ccc(S(=O)(=O)N2Cc3ccccc3OC[C@@H]2C)cc1`, the IC50 in the data set on MCF7 [1], with Ishikawa, in the data set with MDA-MB-231 and with DU-145 was over 50 µM throughout.

For `CCN(CC)CCOc1ccc(C[C@H]2COc3c(cccc3OC)CN2S(=O)(=O)c2ccc(C)cc2)cc1`, the IC50 with MCF7 [1], in the data set with Ishikawa, with MDA-MB-231 and with DU-145 was over 50 µM throughout.

For `COc1cccc2c1OC[C@H](Cc1ccc(OCCN3CCCCC3)cc1)N(S(=O)(=O)c1ccc(C)cc1)C2`, the IC50 in the data set on MCF7 [1], in the data set with Ishikawa, in the data set on MDA-MB-231 and in the data set with DU-145 was over 50 µM each time.

Take `CC/C(=C(\c1ccccc1)c1ccc(OCCN(C)C)cc1)c1ccccc1` [TAMOXIFEN CITRATE]: the concentration for half-maximal inhibition (IC50) turned out to be 10.2 µM with MCF7 [1], 12.5 µM with Ishikawa, 12.3 µM in the data set with MDA-MB-231 and 15.2 µM with DU-145.

For `COc1cccc2c1OC[C@H](Cc1ccc(OCCN(C)C)cc1)N(S(=O)(=O)c1ccc(C)cc1)C2`, the IC50 in the data set on MCF7 [1], with Ishikawa, in the data set with MDA-MB-231 and in the data set on DU-145 was over 50 µM in each case.

For `COc1ccc2c(c1)OC[C@H](Cc1ccc(OCCN(C)C)cc1)N(S(=O)(=O)c1ccc(C)cc1)C2`, the IC50 with MCF7 [1], in the data set on Ishikawa, in the data set with MDA-MB-231 and in the data set on DU-145 was over 50 µM each time.

Turning to `Cc1ccc(S(=O)(=O)N2Cc3ccccc3OC[C@@H]2CC(C)C)cc1`, the IC50 with MCF7 [1], in the data set on Ishikawa, with MDA-MB-231 and in the data set on DU-145 was over 50 µM throughout.

As for `COc1cccc2c1OC[C@H](Cc1ccc(OCCN3CCCCCC3)cc1)N(S(=O)(=O)c1ccc(C)cc1)C2`, the IC50 in the data set on MCF7 [1], in the data set on Ishikawa, in the data set with MDA-MB-231 and in the data set on DU-145 was over 50 µM throughout.

For the compound `COc1ccc2c(c1)OC[C@H](Cc1ccc(OCCN3CCCC3)cc1)N(S(=O)(=O)c1ccc(C)cc1)C2`, the 50% inhibitory concentration (IC50) in the data set with MCF7 [1], in the data set on Ishikawa, with MDA-MB-231 and with DU-145 was over 50 µM in each case.
